Data set [1] concerns Propionibacterium acnes (ATCC 11827). Briefly: Antibacterial activity by agar well diffusion method (zone of inhibition). The class given is cell-based. Conditions: P. acnes, 48 h anaerobic, inhibition detected in all tested concentrations (10-1.25 μg/mL). As to the method: In vitro anti-acne activity of isolated compounds 1 and 2 from the stem bark extract of Artocarpus hirsutus were evaluated against acne causing bacterium, Propionibacterium acnes. The antibacterial activity was determined by agar well diffusion method. The minimum inhibitory concentration (MIC) of the compounds were then ascertained by broth micro dilution method.
Microorganisms: Acne causing bacterium Propionibacterium acnes (ATCC 11827) was procured from American type culture collection Rockville, USA.
Media: Reinforced Clostridial Agar (Hi Media; M154) and Reinforced Clostridial broth (Hi Media; M443) were used in the experiments.
The antibacterial activities of isolated compounds were performed by agar well diffusion method. The samples were dissolved in DMSO to obtain a concentration in the range of 0.5-100 mg/mL. Propionibacterium acnes was cultured on Reinforced Clostridial Agar (RCA) M154 procured from Hi Media and incubated at 37° C. for 48 h in an anaerobic chamber providing gas mixture containing 80% nitrogen, 10% carbon dioxide and 10% hydrogen. The bacterial culture was suspended in sterile normal saline and adjusted to 1.0×10^8 CFU/mL (CLSI, M02-A11; Vol. 32 No. 1). The sterile RCA was seeded with the standardized culture of P. acnes and poured into plates. […] The diameter of zone of inhibition around the wells were measured and recorded.
(Agar diffusion results depend on both activity and mobility in agar.)

The test system is the same in data set [2]. The data set is described as follows: Minimum inhibitory concentration by broth micro dilution method. Format: cell-based. The following applies: Cutibacterium acnes, ATCC11827, P. acnes, 37° C., 48 h, anaerobic. As to the method: In vitro anti-acne activity of isolated compounds 1 and 2 from the stem bark extract of Artocarpus hirsutus were evaluated against acne causing bacterium, Propionibacterium acnes. The antibacterial activity was determined by agar well diffusion method. The minimum inhibitory concentration (MIC) of the compounds were then ascertained by broth micro dilution method. Microorganisms: Acne causing bacterium Propionibacterium acnes (ATCC 11827) was procured from American type culture collection Rockville, USA. Media: Reinforced Clostridial Agar (Hi Media; […]) and Reinforced Clostridial broth (Hi Media; […]) were used in the experiments. The minimum inhibitory concentrations (MIC) of the isolated compounds against P. acnes were determined by broth micro dilution method. Two-fold dilutions of the isolated compounds were prepared in Reinforced Clostridial broth (RCB) to obtain concentrations in the range of 0.1-2000 μg/mL. The diluted samples were loaded in 96-well micro titre plates. The samples were inoculated with the test culture of P. acnes so that the final concentration of the bacteria in each well is 1×10^5 CFU (CLSI, M11-A8; Vol. 32 No. 5). The plates were incubated under anaerobic conditions at 37° C. for 48 h and thereafter observed for inhibition of bacterial growth. The minimum concentration required for inhibiting the growth of P. acnes was considered as minimum inhibitory concentration (MIC).

The nature of data set [3]: Solubility in solvents (observed when recording NMR). Format: physicochemical. The following applies: most of the solvents except DMSO. The source says: In ^1H NMR spectrum, the phenolic OH (5-OH) adjacent to the carbonyl was assigned from the downfield signal at δ 13.36 ppm (70%) and 13.33 ppm (30%) and these two signals appeared due to the presence of the two conformers α and β in about 70:30 ratio. The assignment of two doublets at δ 7.15 ppm (˜30%) and 6.94 ppm (˜70%) was crucial in ^1H NMR spectrum. Nonetheless the disappearance of these two signals in D2O exchanged ^1H NMR spectrum (FIG. 5) ascertained that these two doublet signals are nothing but appeared due to the presence of the hydroxyl group (14-OH) sustaining powerful coupling with anomeric proton (14-H). Thus the signals at δ 7.15 ppm (d, ˜30%, β-OH, J=7.5 Hz) and at 6.94 ppm (d, ˜70%, α-OH, J=4.2 Hz) were assigned corresponding to the anomeric 14-OH. Similarly, though the anomeric proton (14-H) was expected to appear as a doublet however owing to further coupling with 14-OH, it appeared as two signals one as double doublets at δ 5.32 ppm (dd, ˜70%, 14-α-H, J=4.2 Hz, 2.1 Hz) and another one as triplet at 4.87 ppm (t, ˜30%, 14-β-H, J=7.8 Hz). The coupling interferences in 14-α/β-H due to 14-OH was disappeared in D2O exchanged ^1H NMR spectrum (FIG. 5) and signals were clearly appeared as doublets at δ 5.28 (d, ˜70%, 14-α-H, J=1.2 Hz) and 4.81 ppm (d, ˜30%, 14-β-H, J=8.7 Hz). As expected the signals ratio ˜70:30 were reflected in the ^13C NMR spectrum also. […]

Data on three compounds can be found in patent publication US10898536B2, “Method of inhibiting propionibacterium acnes” (Sami Labs Limited, priority 2016, dated 2021).

As usually defined, the MIC is the lowest concentration found to suppress growth. A higher MIC goes with weaker potency.

In brackets after ≈: the same amount, converted by molar mass.

On to `CC(C)=CCc1c(-c2cc(O)c(O)cc2O)oc2c3c(cc(O)c2c1=O)OC(C)(C)C=C3` [Artonine E], for which the “zone of inhibition around the wells” value in data set [1] is given as “good inhibition”. The same compound returned an MIC in data set [2] of 2 µg/mL (≈ 4.58 µM).
As for `CCC[C@@H]1C[C@@H](C(=O)N[C@@H]([C@H]2O[C@H](SC)[C@H](O)[C@@H](O)[C@H]2O)[C@H](C)Cl)N(C)C1` [Clindamycin, reference compound], in data set [2], the MIC is 0.03 µg/mL (≈ 0.0706 µM).
On to `CC1C(O)Oc2c(O)cc(O)c3c2C1Cc1c-3oc2c3c(cc(O)c2c1=O)OC(C)(C)C=C3` (stereo not drawn) [pyranocycloartobiloxanthone A (α & β), Pyranocycloartobiloxanthone A], for which the “zone of inhibition around the wells” value in data set [1] is “good inhibition”. In data set [2], this compound showed an MIC of 2 µg/mL (≈ 4.44 µM). Moreover, the solubility entry in data set [3] is given as “relatively poor”.
